Tested on: SREBP pathway
Experiment: SREBP luciferase reporter gene system (SRE-luciferase assay)
Format: cell-based, human
Details: Huh-7/SRE-luc cells, sterol-deficient medium, 0.01-10 µM
How it was run: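 Readout was SRE-driven luciferase normalised to GFP fluorescence in lysates of stably transfected Huh-7/SRE-luc hepatoma cells. Compounds (0.01, 0.03, 0.1, 0.3, 1.0, 3.0, 10 µM; DMSO control) were applied for 16 h in sterol-depleted medium with 2 µM lovastatin and 10 µM mevalonate; IC50 from variable-slope fit.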

Row | Structure (SMILES) | IC50 (Homo sapiens, Huh-7, 16 h) [µM] | IC50 (16 hours) [µM]
1 | COc1nc(C)ccc1C(O)CCC[C@@H](C)[C@H]1CC[C@H]2[C@H]3[C@H](CC[C@]12C)[C@@]1(C)CC[C@H](O)[C@H](O)[C@@H]1CC3(F)F (single isomer, unassigned) [Compound 217, (1R,3aS,3bS,5aR,6R,7S,9aR,9bS,11aR)-4,4-difluoro-1-[(2R,6S)-6-hydroxy-6-(2-methoxy-6-methylpyridin-3-yl)hexan-2-yl]-9a,11a-dimethylhexadecahydro-1H-cyclopenta[1,2-a]phenanthrene-6,7-diol or (1R,3aS,3bS,5aR,6R,7S,9aR,9bS,11aR)-4,4-difluoro-1-[(2R,6R)-6-hydroxy-6-(2-methoxy-6-methylpyridin-3-yl)hexan-2-yl]-9a,11a-dimethylhexadecahydro-1H-cyclopenta[1,2-a]phenanthrene-6,7-diol] | 0.21 | –
2 | C[C@H](CCC[C@H](O)c1cc2ccccc2o1)[C@H]1CC[C@H]2[C@H]3[C@H](CC[C@]12C)[C@@]1(C)CC[C@H](O)[C@H](O)[C@@H]1CC3(F)F [Compound 321, (1R,3aS,3bS,5aR,6R,7S,9aR,9bS,11aR)-1-[(2R,6S)-6-(1-benzofuran-2-yl)-6-hydroxyhexan-2-yl]-4,4-difluoro-9a,11a-dimethylhexadecahydro-1H-cyclopenta[1,2-a]phenanthrene-6,7-diol] | – | 0.114
3 | C[C@H](CCCC(O)c1cccc2c1nnn2C)[C@H]1CC[C@H]2[C@H]3[C@H](CC[C@]12C)[C@@]1(C)CC[C@H](O)[C@H](O)[C@@H]1CC3(F)F (single isomer, unassigned) [Compound 290, (1R,3aS,3bS,5aR,6R,7S,9aR,9bS,11aR)-4,4-difluoro-1-[(2R,6S)-6-hydroxy-6-(1-methylbenzo[d][1,2,3]triazol-4-yl)hexan-2-yl]-9a,11a-dimethylhexadecahydro-1H-cyclopenta[1,2-a]phenanthrene-6,7-diol or (1R,3aS,3bS,5aR,6R,7S,9aR,9bS,11aR)-4,4-difluoro-1-[(2R,6R)-6-hydroxy-6-(1-methylbenzo[d][1,2,3]triazol-4-yl)hexan-2-yl]-9a,11a-dimethylhexadecahydro-1H-cyclopenta[1,2-a]phenanthrene-6,7-diol] | 0.137 | –
4 | COc1ccc(C(O)CCC[C@@H](C)[C@H]2CC[C@H]3[C@H]4[C@H](CC[C@]23C)[C@@]2(C)CC[C@H](O)[C@H](O)[C@@H]2CC4(F)F)c(F)n1 (single isomer, unassigned) [Compound 242, (1R,3aS,3bS,5aR,6R,7S,9aR,9bS,11aR)-4,4-difluoro-1-[(2R,6S)-6-(2-fluoro-6-methoxypyridin-3-yl)-6-hydroxyhexan-2-yl]-9a,11a-dimethylhexadecahydro-1H-cyclopenta[1,2-a]phenanthrene-6,7-diol or (1R,3aS,3bS,5aR,6R,7S,9aR,9bS,11aR)-4,4-difluoro-1-[(2R,6R)-6-(2-fluoro-6-methoxypyridin-3-yl)-6-hydroxyhexan-2-yl]-9a,11a-dimethylhexadecahydro-1H-cyclopenta[1,2-a]phenanthrene-6,7-diol] | – | 0.205
5 | COc1cccc(F)c1C(O)CCCC(C)C1CCC2C3=C(F)CC4C(O)C(O)CCC4(C)C3CCC21C (single isomer, unassigned) [Compound 164] | – | 0.295
6 | COc1ncc(F)cc1[C@H](O)CCC[C@@H](C)[C@H]1CC[C@H]2[C@H]3[C@H](CC[C@]12C)[C@@]1(C)CC[C@H](O)[C@H](O)[C@@H]1CC3(F)F (single isomer, unassigned) [Compound 231] | 0.062 | –
7 | COc1cc(F)cc(OC)c1C(O)CCC[C@@H](C)[C@H]1CC[C@H]2[C@H]3[C@H](CC[C@]12C)[C@@]1(C)CC[C@H](O)[C@H](O)[C@@H]1CC3(F)F (single isomer, unassigned) [Compound 222, (1R,3aS,3bS,5aR,6R,7S,9aR,9bS,11aR)-4,4-difluoro-1-[(2R,6S)-6-(4-fluoro-2,6-dimethoxyphenyl)-6-hydroxyhexan-2-yl]-9a,11a-dimethylhexadecahydro-1H-cyclopenta[1,2-a]phenanthrene-6,7-diol or (1R,3aS,3bS,5aR,6R,7S,9aR,9bS,11aR)-4,4-difluoro-1-[(2R,6R)-6-(4-fluoro-2,6-dimethoxyphenyl)-6-hydroxyhexan-2-yl]-9a,11a-dimethylhexadecahydro-1H-cyclopenta[1,2-a]phenanthrene-6,7-diol] | 0.137 | –
8 | C[C@H](CCCC(O)c1cccc2nn[nH]c12)[C@H]1CC[C@H]2[C@H]3[C@H](CC[C@]12C)[C@@]1(C)CC[C@H](O)[C@H](O)[C@@H]1CC3(F)F (single isomer, unassigned) [Compound 295, (1R,3aS,3bS,5aR,6R,7S,9aR,9bS,11aR)-4,4-difluoro-1-[(2R,6R)-6-hydroxy-6-(3H-benzo[d][1,2,3]triazol-4-yl)hexan-2-yl]-9a,11a-dimethylhexadecahydro-1H-cyclopenta[1,2-a]phenanthrene-6,7-diol or (1R,3aS,3bS,5aR,6R,7S,9aR,9bS,11aR)-4,4-difluoro-1-[(2R,6S)-6-hydroxy-6-(3H-benzo[d][1,2,3]triazol-4-yl)hexan-2-yl]-9a,11a-dimethylhexadecahydro-1H-cyclopenta[1,2-a]phenanthrene-6,7-diol] | – | 0.275
9 | C[C@H](CCCC(O)c1cncc2c1cnn2C)[C@H]1CC[C@H]2[C@H]3[C@H](CC[C@]12C)[C@@]1(C)CC[C@H](O)[C@H](O)[C@@H]1CC3(F)F (stereo partly drawn) [Compound 275, (1R,3aS,3bS,5aR,6R,7 S,9aR,9bS,11aR)-4,4-Difluoro-1-[(2R)-6-hydroxy-6-(1-methylpyrazolo[3,4-c]pyridin-4-yl)hexan-2-yl]-9a,11a-dimethylhexadecahyd ro-1H-cyclopenta[1,2-a]phenanthrene-6,7-diol] | 0.26 | –
10 | C[C@H](CCCC(O)c1cccc2cn[nH]c12)[C@H]1CC[C@H]2[C@H]3[C@H](CC[C@]12C)[C@@]1(C)CC[C@H](O)[C@H](O)[C@@H]1CC3(F)F (single isomer, unassigned) [Compound 269, (1R,3aS,3bS,5aR,6R,7S,9aR,9bS,11aR)-4,4-difluoro-1-[(2R,6R)-6-hydroxy-6-(1H-indazol-7-yl)hexan-2-yl]-9a,11a-dimethylhexadecahydro-1H-cyclopenta[1,2-a]phenanthrene-6,7-diol or (1R,3aS,3bS,5aR,6R,7S,9aR,9bS,11aR)-4,4-difluoro-1-[(2R,6S)-6-hydroxy-6-(1H-indazol-7-yl)hexan-2-yl]-9a,11a-dimethylhexadecahydro-1H-cyclopenta[1,2-a]phenanthrene-6,7-diol] | – | 0.8
11 | C[C@H](CCCC(O)c1cccc2cnn(C)c12)[C@H]1CC[C@H]2[C@H]3[C@H](CC[C@]12C)[C@@]1(C)CC[C@H](O)[C@H](O)[C@@H]1CC3(F)F (stereo partly drawn) [Compound 207, (1R,3aS,3bS,5aR,6R,7 S,9aR,9bS,11aR)-4,4-Difluoro-1-[(2R)-6-hydroxy-6-(1-methylindazol-7-yl)hexan-2-yl]-9a,11a-dimethylhexadecahydro-1H-cyclopenta[1,2-a]phenanthrene-6,7-diol] | 0.206 | –
12 | C[C@H](CCC[C@H](O)c1ccc(F)nc1OCC1COC1)[C@H]1CC[C@H]2[C@H]3[C@H](CC[C@]12C)[C@@]1(C)CC[C@H](O)[C@H](O)[C@@H]1CC3(F)F [Compound 385, (1R,3aS,3bS,5aR,6R,7S,9aR,9bS,11aR)-4,4-difluoro-1-[(2R,6S)-6-{6-fluoro-2-[(oxetan-3-ylmethyl)oxy]pyridin-3-yl}-6-hydroxyhexan-2-yl]-9a,11a-dimethylhexadecahydro-1H-cyclopenta[1,2-a]phenanthrene-6,7-diol] | 0.332 | –
13 | C[C@H](CCC[C@@H](O)c1cc2ccccc2o1)[C@H]1CC[C@H]2[C@H]3[C@H](CC[C@]12C)[C@@]1(C)CC[C@H](O)[C@H](O)[C@@H]1CC3(F)F [Compound 322, (1R,3aS,3bS,5aR,6R,7S,9aR,9bS,11aR)-1-[(2R,6R)-6-(1-benzofuran-2-yl)-6-hydroxyhexan-2-yl]-4,4-difluoro-9a,11a-dimethylhexadecahydro-1H-cyclopenta[1,2-a]phenanthrene-6,7-diol] | – | 0.339
14 | COc1cc(F)nc(OC)c1C(O)CCC[C@@H](C)[C@H]1CC[C@H]2[C@H]3[C@H](CC[C@]12C)[C@@]1(C)CC[C@H](O)[C@H](O)[C@@H]1CC3(F)F (stereo partly drawn) [Compound 214, (1R,3aS,3bS,5aR,6R,7S,9aR,9bS,11aR)-4,4-difluoro-1-[(2R)-6-(6-fluoro-2,4-dimethoxypyridin-3-yl)-6-hydroxyhexan-2-yl]-9a,11a-dimethylhexadecahydro-1H-cyclopenta[1,2-a]phenanthrene-6,7-diol] | 0.183 | –
15 | C[C@H](CCC(O)c1ccc(F)nc1OC1CC1)[C@H]1CC[C@H]2[C@H]3[C@H](CC[C@]12C)[C@@]1(C)CC[C@H](O)[C@H](O)[C@@H]1CC3(F)F (stereo partly drawn) [Compound 382, (1R,3aS,3bS,5aR,6R,7S,9aR,9bS,11aR)-1-[(2R)-5-[2-(cyclopropyloxy)-6-fluoropyridin-3-yl]-5-hydroxypentan-2-yl]-4,4-difluoro-9a,11a-dimethylhexadecahydro-1H-cyclopenta[1,2-a]phenanthrene-6,7-diol] | 0.057 | –
16 | C[C@H](CCCC(O)c1ccccc1OC(F)(F)F)[C@H]1CC[C@H]2C3=C(F)C[C@H]4[C@@H](O)[C@@H](O)CC[C@]4(C)[C@H]3CC[C@]12C (stereo partly drawn) [Compound 2, (1R,3aR,5aR,6R,7S,9aR,9bR,11aR)-4-fluoro-1-[(2R)-6-hydroxy-6-{2-[(trifluoromethyl)oxy]phenyl}hexan-2-yl]-9a,11a-dimethyl-2,3,3a,5,5a,6,7,8,9,9a,9b,10,11,11a-tetradecahydro-1H-cyclopenta[1,2-a]phenanthrene-6,7-diol] | 0.45 | –
17 | COc1ccnc(F)c1C(O)CCC[C@@H](C)[C@H]1CC[C@H]2[C@H]3[C@H](CC[C@]12C)[C@@]1(C)CC[C@H](O)[C@H](O)[C@@H]1CC3(F)F (stereo partly drawn) [Compound 149, (1R,3aS,3bS,5aR,6R,7S,9aR,9bS,11aR)-4,4-difluoro-1-[(2R)-6-(2-fluoro-4-methoxypyridin-3-yl)-6-hydroxyhexan-2-yl]-9a,11a-dimethylhexadecahydro-1H-cyclopenta[1,2-a]phenanthrene-6,7-diol] | 0.14 | –
